For data set [1] the following is noted: laser diffraction; for Size of crystals, 10% < / Size of crystals, 50% < / Size of crystals, 90% < / Size of crystals, Mean: quetiapine conc. 20 w-%, ethanol-water 80 w-% (Example 5), 85 w-% (Example 6). As for the experimental part:
In examples 5 and 6 the crystal size analysis was performed using laser diffraction analyser (light scattering). Volume cell was 15 ml, optical length 0.6 cm, obscuration about 8 to 12%. Methyl siloxane was used as a dispersant.

Structures can show the parent of a compound that is named as a salt. Where two headings read alike, the source gives them in different places.

In the case of `OCCOCCN1CCN(C2=Nc3ccccc3Sc3ccccc32)CC1` [Example 5, quetiapine hemifumarate], in data set [1], the “Size of crystals, 10% <” value is given as 10% < 25 μm; the “Size of crystals, 50% <” value turned out to be 50% < 83 μm; the “Size of crystals, 90% <” value is 90% < 244 μm; the “Size of crystals, Mean” value is recorded as “Mean: 108 μm”.

For `OCCOCCN1CCN(C2=Nc3ccccc3Sc3ccccc32)CC1` [Example 6, quetiapine hemifumarate], in data set [1], the “Size of crystals, 10% <” value is listed as 10% < 14 μm; the “Size of crystals, 50% <” value is 50% < 44 μm; the “Size of crystals, 90% <” value was determined as 90% < 148 μm; the “Size of crystals, Mean” value is reported as “Mean: 60 μm”.

With `OCCOCCN1CCN(C2=Nc3ccccc3Sc3ccccc32)CC1` [quetiapine hemifumarate, 11-(4-[2-(2-hydroxyethoxy)ethyl]-1-piperazinyl]dibenzo[b,f]-1,4-thiazepine hemifumarate (2:1) salt], the size of crystals by setting is: (ratio of alcohol to water 77:22) 50-100 microns; (ratio of alcohol to water 91:9) 10-20 microns. Besides, the “90% of the crystals below” value in data set [1] (water content of crystallization solvent between 15 to 20 w-%) was “below 244 μm”.

Values taken from patent US8044038B2 (Fermion Oy, priority 2005, dated 2011).
